# Measured values taken from patent US7098218B2, “Steroidal compounds for inhibiting steroid sulphatase” (priority 2001, dated 2006).
# Several values for one entry are separate records, joined by “and”; a condition that tells them apart may be missing. Identical values can stand only once.
# Key:
# [1] = biological target: T1, STS (Homo sapiens, UniProt P08842); test: biochemical
# T1 construct: can be assessed using either intact MCF-7 breast cancer cells or placental microsomes
# T1 sequence (P08842 22-583): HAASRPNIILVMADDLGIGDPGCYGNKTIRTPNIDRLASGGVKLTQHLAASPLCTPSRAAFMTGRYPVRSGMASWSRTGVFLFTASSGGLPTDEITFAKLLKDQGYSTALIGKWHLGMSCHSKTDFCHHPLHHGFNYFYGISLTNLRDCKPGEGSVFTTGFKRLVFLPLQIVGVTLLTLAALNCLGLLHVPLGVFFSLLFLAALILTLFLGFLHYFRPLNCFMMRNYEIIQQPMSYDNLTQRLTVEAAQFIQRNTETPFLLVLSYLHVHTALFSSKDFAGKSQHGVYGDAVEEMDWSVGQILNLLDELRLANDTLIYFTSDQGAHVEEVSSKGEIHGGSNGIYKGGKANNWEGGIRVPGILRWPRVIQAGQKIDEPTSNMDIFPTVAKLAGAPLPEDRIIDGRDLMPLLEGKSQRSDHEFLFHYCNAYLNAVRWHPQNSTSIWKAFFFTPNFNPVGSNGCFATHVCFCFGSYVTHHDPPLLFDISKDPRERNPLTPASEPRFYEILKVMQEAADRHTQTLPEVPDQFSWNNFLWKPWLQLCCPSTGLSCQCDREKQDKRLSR
# [2] = biological target: T2, steroid sulphatase (Homo sapiens, UniProt P08842); conditions: cited from earlier work
# T2 sequence (P08842 22-583): T1 sequence (P08842 22-583)
# [3] = test system: rats (uterotrophic activity); conditions: cited from earlier work
# [4] = biological target: T3, E1-STS in intact MCF-7 cells (Homo sapiens, UniProt P08842); parameters: dose or concentration left out as unconfirmed; conditions: cited from earlier work
# T3 construct: endogenous in cells; host or cells: MCF-7 human breast cancer cells
# T3 sequence (P08842 22-583): T1 sequence (P08842 22-583)
# [5] = biological target: T4, human placental steroid sulphatase (Homo sapiens, UniProt P08842); test: Inhibition of oestrone sulphatase activity in human placental microsomes; assay type: biochemical
# T4 construct: Placental microsomes (100000 g fraction) were prepared from a positive-positive human placenta from a normal-term pregnancy; from tissue; host or cells: human placenta, microsomal fraction
# T4 sequence (P08842 22-583): T1 sequence (P08842 22-583)
# [6] = test system: breast tumour cells; conditions: cited from earlier work
# [7] = test system: ovariectomised rats (uterine growth); test: In vivo oestrogenicity, uterine growth in ovariectomised rats (Protocol 4); parameters: species or system rat; conditions: 10 mg/Kg/day for five days orally, uterine weight
# Protocol: The compounds of the present invention may be studied using an animal model, in particular in ovariectomised rats. In this model, compounds which are oestrogenic stimulate uterine growth.
# The compound (10 mg/Kg day for five days) was administered orally to rats with another group of animals receiving vehicle only (propylene glycol). A further group received the estrogenic compound EMATE subcutaneously in an amount of […] for five days. At the end of the study uteri were obtained and weighed with the results being expressed as uterine weight/whole body weight×100.
# [8] = biological target: T5, rat liver STS (Rattus norvegicus, UniProt P15589); test: Inhibition of oestrone sulphatase activity in vivo, rat liver (Protocol 3); conditions: rats; 10 mg/Kg/day for five days orally
# T5 construct: samples of liver tissue were obtained and oestrone sulphatase activity assayed; from tissue; host or cells: rat liver
# T5 sequence (P15589 20-577): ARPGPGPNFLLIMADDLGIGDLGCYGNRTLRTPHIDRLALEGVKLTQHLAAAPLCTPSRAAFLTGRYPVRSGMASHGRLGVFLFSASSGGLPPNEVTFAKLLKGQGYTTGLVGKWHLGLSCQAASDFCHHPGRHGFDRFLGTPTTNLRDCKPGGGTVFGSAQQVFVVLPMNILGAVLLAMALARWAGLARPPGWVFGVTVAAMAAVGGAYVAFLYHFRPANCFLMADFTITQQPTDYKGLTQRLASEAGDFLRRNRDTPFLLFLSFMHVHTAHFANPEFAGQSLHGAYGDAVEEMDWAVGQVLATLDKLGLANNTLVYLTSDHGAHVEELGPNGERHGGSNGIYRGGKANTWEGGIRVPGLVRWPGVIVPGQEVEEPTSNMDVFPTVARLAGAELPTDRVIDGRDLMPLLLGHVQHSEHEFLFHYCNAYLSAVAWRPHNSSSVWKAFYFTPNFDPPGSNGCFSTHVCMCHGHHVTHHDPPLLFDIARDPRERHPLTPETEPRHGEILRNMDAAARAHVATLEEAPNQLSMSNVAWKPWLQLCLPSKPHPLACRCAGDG
# Protocol: The compounds of the present invention may be studied using an animal model, in particular in ovariectomised rats. In this model compounds which are oestrogenic stimulate uterine growth.
# The compound (10 mg/Kg/day for five days) was administered orally to rats with another group of animals receiving vehicle only (propylene glycol). A further group received the compound EMATE subcutaneously in an amount of 10 μg/day for five days. At the end of the study samples of liver tissue were obtained and oestrone sulphatase activity assayed using 3 H oestrone sulphate as the substrate as previously described (see PCT/GB95/02638).
# [9] = read-out: Mean % Inhibition ± SD
smiles,measurement,setting,value
"NS(=O)(=O)Oc1ccc2c3c(c(=O)oc2c1)CCCCC3 [667 Coumate, reference compound]",667 Coumate value: % Inhibition,[1]; 0.005 µM,5 nM = 63%Inhibition and 5 nM = 56%Inhibition
same,inhibition at 0.005 µM,[1]; read-out: 667 Coumate value: % Inhibition,63%
same,times more potent than EMATE in vitro,[2],~3 times
"C[C@]12CC[C@@H]3c4ccc(OS(N)(=O)=O)cc4CC[C@H]3[C@@H]1CCC2=O [EMATE, estrone-3-O-sulfamate]","oral uterotrophic activity, times higher than that of oestradiol",[3],100 times
same,inhibition of E1-STS activity,[4],more than 99%
same,IC50,[5],8 nM
"C[C@]12CC[C@@H]3c4ccc(O)cc4CC[C@H]3[C@@H]1CC[C@@H]2O [Oestradiol, oestradiol]","proliferative effect, fold greater than oestrone",[6],10 fold
CCCN1C(=O)CC2C3CCc4cc(OS(N)(=O)=O)ccc4C3CC[C@]2(C)C1=O (some centres unmarked) [STX213],oestrogenicity (FIG. 2),[7],lack of oestrogenicity
"CCCN1C(=O)CC2C3CCc4cc(OS(N)(=O)=O)ccc4C3CC[C@]2(C)C1=O (some centres unmarked) [STX 213, 3Sulfamoyl-N-propyl-16,17-seco-estra-1,3,5(10)-triene-16,17-imide]",inhibition of rat liver STS (FIG. 3),[8],inhibition of rat liver STS
same,IC50,[5],1 nM
same,inhibition at 0.0001 µM,[5]; [9],21.2 ± 0.8%
same,inhibition at 0.001 µM,[5]; [9],49.3 ± 1.2%
same,inhibition at 0.01 µM,[5]; [9],64.1 ± 4.6%
same,inhibition at 0.1 µM,[5]; [9],84.6 ± 1.3%
same,inhibition at 1 µM,[5]; [9],96.8 ± 0.8%
same,inhibition at 10 µM,[5]; [9],99.3 ± 1.1%
"C[C@]12CCC3c4ccc(OS(N)(=O)=O)cc4CCC3C1CC(=O)N(Cc1cccnc1)C2=O (some centres unmarked) [STX 237, 3-Sulfamoyl-N-(3-picolyl)-16,17-seco-estra-1,3,5(10)-triene-16,17-imide]",inhibition of rat liver STS (FIG. 3),[8],inhibition of rat liver STS
same,inhibition of STS (in words),[5]; in vitro,Good inhibition
same,times more potent than EMATE,[5]; ratio of IC50 values versus EMATE,18 times
same,oestrogenicity (FIG. 2),[7],lack of oestrogenicity
